Reference: PMC11952846, “The sterol-regulating human ARV1 binds cholesterol and phospholipids through its conserved ARV1 homology domain” (The Journal of Biological Chemistry, 2025)
Residue numbers refer to the chain shown, from its start.

How the values were obtained:
[1] = biological target: T1, GST-ARV1-N98 (Homo sapiens, UniProt Q9H2C2); assay: Lipid overlay far western; assay type: binding
T1 construct: Expresses amino-terminal 98 amino acids of ARV1; made in house; host or cells: E. coli BL21 (pGEX-4T1)
T1 sequence (Q9H2C2 1-98): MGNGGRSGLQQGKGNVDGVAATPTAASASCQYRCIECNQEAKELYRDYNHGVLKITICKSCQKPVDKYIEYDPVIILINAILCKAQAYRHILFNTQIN
Procedure: (§1) Lipid overlays were blocked in TBST-BSA (100 mM Tris–HCl buffer, pH 7.5, 150 mM NaCl, 0.5% Tween 20, 3% bovine serum albumin) for 1 h and subsequently washed eight separate times with TBST for 2 min each. Overlays were incubated with 0.5 μg/ml GST-tagged or 6XHIS-tagged proteins in 3% TBST-BSA buffer containing 0.1% Triton X-100, for 1 h at room temperature and washed as above. Overlays were incubated with either anti-GST or anti-6XHIS monoclonal antibodies at a 1:1000 dilution in TBST-BSA for 1 h at room temperature followed by eight washes in TBST. Overlays were visualized using Immobilon Western Chemiluminescent horseradish peroxidase substrate and protein–lipid interaction was detected using a GE ImageQuant LAS 3000 imager.

[2] = biological target: T2, GST-ARV1 (full-length ARV1) (Homo sapiens, UniProt Q9H2C2); assay: Lipid overlay far western; assay type: binding
T2 construct: Expresses full length ARV1; made in house; host or cells: E. coli BL21 (pGEX-4T1)
T2 sequence (Q9H2C2 1-271): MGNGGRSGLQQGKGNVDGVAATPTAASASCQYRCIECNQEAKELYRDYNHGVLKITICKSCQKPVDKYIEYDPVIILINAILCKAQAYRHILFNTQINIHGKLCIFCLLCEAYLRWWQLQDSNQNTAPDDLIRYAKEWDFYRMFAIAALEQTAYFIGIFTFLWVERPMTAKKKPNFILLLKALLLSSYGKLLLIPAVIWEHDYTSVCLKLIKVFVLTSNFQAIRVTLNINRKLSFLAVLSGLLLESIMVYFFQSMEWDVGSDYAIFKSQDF
Procedure: as §1

[3] = biological target: T3, GST-ARV1-N98 C34/C37A (Homo sapiens, UniProt Q9H2C2, C34A/C37A); assay: Liposome binding assay, site-directed mutant; conditions: PC:PL, sulfatide or PI(4)P liposomes
T3 construct: Expresses amino-terminal 98 amino acids of ARV1; made in house; host or cells: E. coli BL21 (pGEX-4T1)
T3 sequence (Q9H2C2 1-98 C34A/C37A): T1 sequence (Q9H2C2 1-98) with C34A, C37A
Procedure: Lyophilized lipids were reconstituted in chloroform at 10 mg/ml and stored in glass tubes with Teflon tops at −20 °C until use. One milliliter of 10 mg/ml stock was dried under a stream of nitrogen in a glass tube until a lipid cake/film was formed. The lipid cake was then rehydrated in BLT rehydration buffer (5 mM Tris/HCl, pH 7.4, containing 150 mM NaCl) to a concentration of 1 mg/ml. Lipid suspensions were subjected to three freeze/thaw cycles using a dry ice ethanol/[…] water bath to encapsulate the buffer and improve liposome formation. The suspension and lipid extruder were equilibrated to temperature for 10 min and liposomes were extruded using […] polycarbonate membranes (Avestin). Liposomes were made by mixing stock lipid PL (1 mg/ml) with PC (10 mg/ml).
Sulfatide liposomes were generated as previously described ([94]). All lipids were resuspended in organic solvents as per manufacturer’s instructions. Liposomes were prepared with mixing PC:PE:cholesterol:sulfatides (1:1:1:4) and subsequently dried down by lyophilization to obtain lipid films. Lipids were hydrated in 20 mM Tris–HCL, pH 6.8, containing 100 mM NaCl at a concentration of 1 mg/ml.
PI(4)P liposomes were generated as described by Knodler et al. ([95]), with some modifications. Briefly, liposomes were generated at a lipid concentration of 10 mg/ml. Liposomes contained PC (60%), PI (30%), PE (8%), and PI(4)P (2%). Lipid solution was dried down and resuspended in liposome buffer (20 mM Hepes–HCL, pH 7.4, containing 1 mM EDTA and 50 mM potassium acetate). Liposomes were formed by sonication on ice.
Liposomes were serial diluted in floatation buffer (100 mM NaCl, 2 mM EDTA, pH 5.5) to a final concentration of 0.1 mg/ml. Nine hundred microliters of liposome solution was placed in clear ultracentrifuge tubes and mixed with 100 μl of 0.01 μg/ml of protein. The liposome/protein solution was incubated at room temperature for 1 h with occasional shaking. An initial 100 μl of liposome/protein solution (liposomes) was removed and the remaining 900 μl was centrifuged at 50,000g for 20 min at 4 °C. The pellet was resuspended in 800 μl of fresh floatation buffer, centrifuged as above, and 800 μl of supernatant was removed (wash 1). This was repeated a second time and again 800 μl of supernatant was removed (wash 2). The final pellet was resuspended in 100 μl of floatation buffer plus SDS treatment buffer (pellet). Thirty microliters of each fraction was run on a 15% SDS-PAGE gel and probed with an anti-GST monoclonal antibody at a 1:1500 dilution.

[4] = biological target: GST-Annexin A2 (Homo sapiens, UniProt P07355); assay: Lipid overlay far western (positive control protein); assay type: binding
Procedure: as §1

[5] = lipid-embedded membrane strips, incl. sphingolipid strip
[6] = PIP lipid membrane strip, 100pmol-1.56pmol per spot

Sequence of GST-Annexin A2 (P07355 whole entry): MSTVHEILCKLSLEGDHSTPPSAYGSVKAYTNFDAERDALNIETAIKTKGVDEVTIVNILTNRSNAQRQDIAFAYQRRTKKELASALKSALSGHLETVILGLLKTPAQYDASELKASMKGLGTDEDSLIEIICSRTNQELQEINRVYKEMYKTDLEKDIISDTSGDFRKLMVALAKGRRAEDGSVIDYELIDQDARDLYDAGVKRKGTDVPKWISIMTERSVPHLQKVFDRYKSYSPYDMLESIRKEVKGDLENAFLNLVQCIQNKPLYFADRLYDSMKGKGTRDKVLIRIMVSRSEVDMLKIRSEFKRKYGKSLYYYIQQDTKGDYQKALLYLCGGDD

Row | Molecule | lipid-protein interaction [1, 5] | lipid-protein interaction [2, 5] | liposome binding [3] | lipid-protein interaction [4, 5] | lipid-protein interaction [4, 6] | lipid-protein interaction [1, 6] | lipid-protein interaction [2, 6]
1 | phosphatidylethanolamine [PE] | not seen | not seen |  |  |  |  | 
2 | CCCCCCCC/C=C\CCCCCCCC(=O)OC[C@H](COP(=O)(O)OCC(O)CO)OC(=O)CCCCCCC/C=C\CCCCCCCC (some centres unmarked) [PG, phosphatidylglycerol] | interacted | weakly | not |  |  |  | 
3 | CCCCCCCCCCCCCCCC(=O)OC[C@H](COP(=O)(O)O)OC(=O)CCCCCCCCCCCCCCC [PA, phosphatidic acid] |  |  | bound | weakly |  |  | 
4 | CCCCCC(=O)O[C@H](COC(=O)CCCCCNC(=O)CCCC[C@@H]1SC[C@@H]2NC(=O)N[C@@H]21)COP(=O)(O)O[C@H]1[C@H](O)[C@@H](O)[C@H](OP(=O)(O)O)[C@@H](O)[C@H]1O [reference compound] | interacted | weakly | bound | interacted | strongest interactions | interacted | weakly
5 | CCCCC/C=C\C/C=C\CCCCCCCC(=O)OC[C@H](COP(=O)(O)OCC(O)COP(=O)(O)OC[C@@H](COC(=O)CCCCCCC/C=C\C/C=C\CCCCC)OC(=O)CCCCCCC/C=C\C/C=C\CCCCC)OC(=O)CCCCCCC/C=C\C/C=C\CCCCC (some centres unmarked) [CL, cardiolipin] | interacted | interacted |  | interacted |  |  | 
6 | CCCCCCCCCCCCCCCCCC(=O)OC[C@H](COP(=O)(O)OC[C@H](N)C(=O)O)OC(=O)CCCCCCCCCCCCCCCCC [PS, phosphatidylserine] | interacted | interacted |  | interacted |  |  | 
